Laboratory results: article PMC10058949, “Effect of N-Terminal Peptide Modifications on In Vitro and In Vivo Properties of ^177Lu-Labeled Peptide Analogs Targeting CCK2R” (Pharmaceutics, 2023)

Columns and labels:
[1] = Octanol/PBS distribution coefficient (logD7.4); format: physicochemical; conditions: pH 7.4
Experimental: The stability studies with the ^177Lu-labeled peptide analogs were carried out at a concentration of 0.5 nmol peptide/mL in fresh human serum (n = 2) for up to 24 h. A mixture of 0.05 nmol/mL of the radiolabeled peptides in PBS and octanol (1/1, v/v) was used to evaluate the octanol/PBS distribution coefficient (logD7.4; n = 8). To determine the protein binding in human serum by Sephadex G-50 size-exclusion chromatography (GE Healthcare Illustra, Little Chalfont, UK), a 25 µL serum sample was used for different time points after incubation. All steps were performed according to previously published protocols.

[2] = in vivo; parameters: species or system mice; conditions: female, BALB/c nude, mouse, iv, 20 pmol, total radioactivity
Description: Based on these preliminary studies, [^177Lu]Lu-2 was selected for further biodistribution studies evaluating the tumor uptake and tissue distribution for up to 7 days after injection. This study was approved by the Nijmegen Medical Center animal ethics committee (RUDEC) and the Dutch animal ethics committee (CCD) of the Radboud University (2020–0007-020). Female BALB/c nude mice were inoculated with A431-CCK2R cells at an age of 8–10 weeks (n = 20). When tumor xenografts were formed, mice were injected intravenously via a lateral tail vein with ~1 MBq of [^177Lu]Lu-2, corresponding to 20 pmol of peptide, in a total volume of 200 µL in PBS/0.5% BSA. For quantification, a 1% standard was used. At different time points of 1 h, 24 h, 3 days, and 7 days after injecton, animals were euthanized by CO2/O2-asphyxiation and a blood sample was immediately drawn, and tissues of interest (spleen, pancreas, stomach, intestine, kidneys, liver, heart, lung, muscle, femur, A431-CCK2R tumor, and A431-mock tumor) were dissected. All collected samples were weighed and measured in the γ-counter together with the standard. Results were expressed as percentage of injected activity per gram of tissue (%IA/g), and tumor-to-organ activity ratios were calculated for selected tissues. For dose-limiting organs, kidneys and stomach, dosimetry estimates were calculated using Olinda-EXM (version 2.2, Vanderbilt University) and standard weights for humans (male and female). For this purpose, the % IA/g determined in mice was extrapolated to humans using the following equation: % IA per organ in humans=[%IA/gin mice×mass of mice (kg)]×(mass of human organ (g)/total body mass of human (kg))

[3] = uptake in A431-CCK2R xenografts

logD [1]: -2.18 ± 0.38
tissue to tissue ratio at 1 h ([2]; Tumor-to-blood ratio): 38.9
tissue to tissue ratio at 24 h ([2]; Tumor-to-blood ratio): 3240
tissue to tissue ratio at 72 h ([2]; Tumor-to-blood ratio): 4860
tissue to tissue ratio at 168 h ([2]; Tumor-to-blood ratio): 241
tissue to tissue ratio at 1 h ([2]; Tumor-to-kidney ratio): 19.8
tissue to tissue ratio at 24 h ([2]; Tumor-to-kidney ratio): 25.5
tissue to tissue ratio at 72 h ([2]; Tumor-to-kidney ratio): ~17
tissue to tissue ratio at 168 h ([2]; Tumor-to-kidney ratio): 4
tissue to tissue ratio at 1 h ([2]; Tumor-to-stomach ratio): 10.4
tissue to tissue ratio at 24 h ([2]; Tumor-to-stomach ratio): 9.2
tissue to tissue ratio at 72 h ([2]; Tumor-to-stomach ratio): ~6
tissue to tissue ratio at 168 h ([2]; Tumor-to-stomach ratio): 1.4
tissue uptake at 1 h [2, 3]: 56.3 ± 9.14 %ID/g
tissue uptake at 24 h [2, 3]: 33.6 ± 2.95 %ID/g
tissue uptake at 72 h [2, 3]: 12.5 ± 0.96 %ID/g
tissue uptake at 168 h [2, 3]: 1.23 ± 0.53 %ID/g
tissue uptake at 1 h ([2]; uptake in blood): 1.45 ± 0.3 %ID/g
tissue uptake at 168 h ([2]; uptake in blood): 0.01 %ID/g
tissue uptake at 1 h ([2]; uptake in femur): 0.23 ± 0.05 %ID/g
tissue uptake at 24 h ([2]; uptake in femur): 0.05 ± 0.01 %ID/g
tissue uptake at 72 h ([2]; uptake in femur): 0.03 ± 0.01 %ID/g
tissue uptake at 168 h ([2]; uptake in femur): 0.04 ± 0.02 %ID/g
tissue uptake at 1 h ([2]; uptake in heart): 0.62 ± 0.12 %ID/g
tissue uptake at 24 h ([2]; uptake in heart): 0.05 ± 0.01 %ID/g
tissue uptake at 72 h ([2]; uptake in heart): 0.02 %ID/g
tissue uptake at 168 h ([2]; uptake in heart): 0.02 %ID/g
tissue uptake at 1 h ([2]; uptake in intestine): 1 ± 0.34 %ID/g
tissue uptake at 24 h ([2]; uptake in intestine): 0.16 ± 0.02 %ID/g
tissue uptake at 72 h ([2]; uptake in intestine): 0.08 %ID/g
tissue uptake at 168 h ([2]; uptake in intestine): 0.03 %ID/g
tissue uptake at 1 h ([2]; uptake in kidneys): 2.84 ± 0.42 %ID/g
tissue uptake at 24 h ([2]; uptake in kidneys): 1.32 ± 0.23 %ID/g
tissue uptake at 72 h ([2]; uptake in kidneys): 0.72 ± 0.1 %ID/g
tissue uptake at 1 h ([2]; uptake in liver): 0.95 ± 0.12 %ID/g
tissue uptake at 24 h ([2]; uptake in liver): 0.38 ± 0.08 %ID/g
tissue uptake at 72 h ([2]; uptake in liver): 0.18 ± 0.01 %ID/g
tissue uptake at 168 h ([2]; uptake in liver): 0.06 ± 0.01 %ID/g
tissue uptake at 1 h ([2]; uptake in lung): 4.33 ± 0.87 %ID/g
tissue uptake at 24 h ([2]; uptake in lung): 0.09 ± 0.02 %ID/g
tissue uptake at 72 h ([2]; uptake in lung): 0.06 ± 0.01 %ID/g
tissue uptake at 168 h ([2]; uptake in lung): 0.02 ± 0.01 %ID/g
tissue uptake at 1 h ([2]; uptake in muscle): 0.22 ± 0.05 %ID/g
tissue uptake at 24 h ([2]; uptake in muscle): 0.03 %ID/g
tissue uptake at 72 h ([2]; uptake in muscle): 0.01 %ID/g
tissue uptake at 168 h ([2]; uptake in muscle): 0.01 ± 0.01 %ID/g
tissue uptake at 1 h ([2]; uptake in pancreas): 0.85 ± 0.14 %ID/g
tissue uptake at 24 h ([2]; uptake in pancreas): 0.41 ± 0.08 %ID/g
tissue uptake at 72 h ([2]; uptake in pancreas): 0.28 ± 0.04 %ID/g
tissue uptake at 168 h ([2]; uptake in pancreas): 0.16 ± 0.04 %ID/g
tissue uptake at 1 h ([2]; uptake in spleen): 0.54 ± 0.08 %ID/g
tissue uptake at 24 h ([2]; uptake in spleen): 0.19 ± 0.03 %ID/g
tissue uptake at 72 h ([2]; uptake in spleen): 0.13 ± 0.02 %ID/g
tissue uptake at 168 h ([2]; uptake in spleen): 0.09 ± 0.04 %ID/g
tissue uptake at 1 h ([2]; uptake in stomach): 5.43 ± 1.05 %ID/g
tissue uptake at 24 h ([2]; uptake in stomach): 3.66 ± 0.38 %ID/g
tissue uptake at 72 h ([2]; uptake in stomach): 2.28 ± 0.33 %ID/g
tissue uptake at 168 h ([2]; uptake in stomach): 0.88 ± 0.12 %ID/g
Structure (SMILES): CCCC[C@@H](C(=O)N[C@@H](CC(=O)O)C(=O)N[C@@H](Cc1cccc2ccccc12)C(N)=O)N(C)C(=O)[C@H](Cc1c[nH]c2ccccc12)NC(=O)CCNC(=O)CC(O)CNC(=O)CC(O)CNC(=O)CN1CCN(CC(=O)O)CCN(CC(=O)O)CCN(CC(=O)O)CC1 (stereo partly shown) [[^177Lu]Lu-2, metal not drawn]
